Assay results from PubChem BioAssay (NCI).
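Each compound was tested at five concentrations against cells in 96-well plates for 48 hours. GI50 marks 50% less growth. Definition used: TGI = concentration required for complete inhibition of growth.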

Assays:
Experiment in all cases: NCI tumour cell line growth inhibition, 48 h
[1] = test system: UO-31 renal
[2] = test system: SK-MEL-28 melanoma
[3] = test system: CCRF-CEM leukemia
[4] = test system: NCI-H23 lung
[5] = test system: ACHN renal
[6] = test system: SK-MEL-5 melanoma
[7] = test system: SW-620 colon
[8] = test system: OVCAR-4 ovarian
[9] = test system: CAKI-1 renal
[10] = test system: HCT-15 colon

Row | SMILES | GI50 [1] | TGI [1] | GI50 [2] | TGI [2] | GI50 [3] | TGI [3] | GI50 [4] | TGI [4] | GI50 [5] | TGI [5] | GI50 [6] | TGI [6] | GI50 [7] | TGI [7] | GI50 [8] | TGI [8] | GI50 [9] | TGI [9] | GI50 [10] | TGI [10]
1 | O=C1Cc2cc(CCn3ccnc3)c(Cl)cc2N1 | 58 µM | > 100 µM | 29.7 µM | > 100 µM | 3.37 µM | > 100 µM | 40.8 µM | > 100 µM | 20.3 µM | > 100 µM | 8.12 µM | > 100 µM | 5.02 µM | > 100 µM | 45 µM | > 100 µM | 6.32 µM | > 100 µM | 7.07 µM | > 100 µM
2 | O=S(=O)(NCCNc1nccc(-c2c(-c3cccc(O)c3)nc3sccn23)n1)c1ccc(F)cc1 | 4.32 µM | 21 µM | 0.66 µM | 24 µM | 2.8 µM | > 100 µM | 11.1 µM | 38.2 µM | 3.53 µM | 28.4 µM | 1.61 µM | 3.98 µM | 5.95 µM | 36.9 µM | 6.5 µM | 41.3 µM | 3.69 µM | 40.5 µM | 10.8 µM | 55.4 µM
3 | CCCNc1nc(N(C)O)nc(N(C)O)n1 | 0.981 µM | > 40.8 µM | 2.64 µM | > 91 µM | 0.432 µM | 5.46 µM | 4.73 µM | > 100 µM | 1.03 µM | > 100 µM | 1.6 µM | 6.61 µM | 3.46 µM | > 100 µM | 2.48 µM | > 100 µM | 3.15 µM | 43.7 µM | 0.504 µM | > 100 µM
4 | CCOc1ccc(Cc2nccc3cc(OCC)c(OCC)cc23)cc1OCC | 2.87 µM | 32.4 µM | 14.8 µM | 28.9 µM | 8.45 µM | 65.1 µM | 1.93 µM | 21.6 µM | 7.54 µM | 45.1 µM | 1.61 µM | 4.19 µM | 3.68 µM | 24.1 µM | 9.74 µM | 26 µM | 4.53 µM | 41 µM | 10.2 µM | 29.8 µM
5 | C/C=C/C=N/N(c1nnc(-c2ccccc2)c(-c2ccccc2)n1)S(=O)(=O)c1ccc(C)cc1 |  | 19.6 µM |  | 28.7 µM |  | 9.21 µM |  | 29.7 µM |  | 24.3 µM |  | 23.1 µM |  | 14.9 µM |  | 28.2 µM |  | 31.4 µM |  | 18.6 µM
6 | O=C(c1cc(=O)c2ccc(O)cc2o1)c1ccc(Cl)cc1Cl |  | > 82.2 µM |  | > 100 µM |  | 39.6 µM |  | > 73.3 µM |  | > 100 µM |  | > 74.6 µM |  | > 54.6 µM |  | > 90.1 µM |  | > 100 µM |  | > 100 µM
7 | CCCOc1ccc(/C(Cl)=C(\C=O)c2ccc(OC)c(OC)c2)cc1OCCC |  | > 100 µM |  | 25.3 µM |  | > 100 µM |  | 21.6 µM |  | > 100 µM |  | 46.3 µM |  | > 100 µM |  | > 100 µM |  | > 100 µM |  | 32.8 µM
8 | COc1cc2c(cc1OC)C(CCc1ccc(Cl)cc1)N(C)CC2 (stereo not drawn) | 20.6 µM | > 100 µM | 20.1 µM | 46.9 µM | 29.1 µM | > 100 µM | 30.1 µM | > 100 µM | 25.7 µM | 92 µM | 14.4 µM | 27.6 µM | 19.3 µM | 45.4 µM | 33.9 µM | > 100 µM | 10.7 µM | 31.7 µM | 30.2 µM | > 100 µM
9 | CCCCCCCCCCCCCCCCOC(=O)C(C(=O)OCCCCCCCCCCCCCCCC)[N+](C)(C)CCOC(C)=O |  | 34.2 µM |  | 40.8 µM |  | 28.6 µM |  | 30.3 µM |  | 34.9 µM |  | 35.1 µM |  | 52.4 µM |  | 32.4 µM |  | 30.9 µM |  | 46.1 µM
10 | CC(=O)NNc1nc(C)c(C(=O)NNC(=O)C(=O)Nc2ccc(C)c(C)c2)s1 |  | > 100 µM |  | > 100 µM |  | > 100 µM |  | > 100 µM |  | > 100 µM |  | > 100 µM |  | > 100 µM |  | > 100 µM |  | > 100 µM |  | > 100 µM
11 | C=C1CC[C@@H]2C(C)(C)[C@@H](O)CC[C@@]2(C)[C@@H]1COc1ccc2ccc(=O)oc2c1 | 10.2 µM | 22.9 µM | 15.1 µM | 30.1 µM |  | 68.3 µM | 13.8 µM | 33.8 µM | 14.3 µM | 29.2 µM | 5.68 µM | 18 µM | 18.8 µM | 44 µM | 6.97 µM | 21.6 µM | 13.4 µM | 55.6 µM | 11.5 µM | 26.8 µM
12 | CC(C)=CC/C=C(/C)[C@H]1CC[C@]2(C)[C@@H]1CC[C@@H]1[C@@]3(C)CCC(=O)NC(C)(C)[C@@H]3CC[C@]12C | 15.6 µM | 29.2 µM | 16.7 µM | 31.6 µM | 12.4 µM | 47.9 µM | 18.3 µM | 45.7 µM | 20 µM | 43 µM | 13.3 µM | 26.4 µM | 20.2 µM | 43.9 µM | 21.9 µM | 75 µM | 19.6 µM | 40.3 µM | 15.4 µM | 32.1 µM
13 | COc1ccc(/C=C2/C(=O)N(C(=O)c3ccccc3O)N=C2C)cc1OC |  | > 100 µM |  | > 100 µM |  | > 100 µM |  |  |  | > 100 µM |  | 24.6 µM |  | > 100 µM |  | > 100 µM |  | > 28.1 µM |  | > 100 µM
14 | COC1=C(OC)C(=O)C(/C=C(\C)C(=O)O)=C(C)C1=O | > 100 µM | > 100 µM | > 100 µM | > 100 µM | 67 µM | > 100 µM | > 100 µM | > 100 µM | > 100 µM | > 100 µM | > 100 µM | > 100 µM | > 100 µM | > 100 µM | > 100 µM | > 100 µM | > 100 µM | > 100 µM | > 100 µM | > 100 µM
15 | Fc1ccc(-c2nc(-c3nc4ccc(Cl)cc4[nH]3)cc3c2[nH]c2ccccc23)cc1 | 2.4 µM | 10.7 µM | 4.25 µM | 14.9 µM | 3.37 µM | 20.3 µM | 3.66 µM | 21.1 µM | 3.06 µM | 13.7 µM | 3.52 µM | 15.4 µM | 4 µM | 19.2 µM | 4.81 µM | 17.2 µM | 3.22 µM | 24 µM | 3.63 µM | 15.9 µM
